Converted amounts (≈) assume the structure as drawn. Read-outs that look alike come from different tables or passages of the source.
How the values were obtained:
[1] = tested on: PANC-1 human pancreatic tumor xenografts; assay: PANC-1 xenograft model; type: in vivo, athymic nude mice; settings: PANC-1, 28 mg/kg once every third day for three treatments
Method: The anti-tumor efficacy studies of LBI-1103 in the MDA-MB-468 xenograft model as compared to Taxotere® and in the PANC-1 xenograft model as compared to Taxotere® and Gemcytabine were completed recently. The controls and LBI-1103 were injected intravenously once every other day for three treatments except for PANC-1 xenograft animals, where they were treated with Gemcitabine once every third day for three treatments.
In the PANC-1 xenograft models treated with LBI-1103, Taxotere® and Gemcitabine, a significant reduction in tumor weight was observed after the first day of dosing and this trend continued till the end of the study (FIG. 19).

[2] = cited from earlier work
[3] = after irinotecan; cited from earlier work
human plasma proteins = settings: cited from earlier work
[4] = tested on: topoisomerase I purified from human and rodent tumor cell lines; settings: more potent than irinotecan; cited from earlier work
[5] = in blood; cited from earlier work
[6] = cited from earlier work; for solubility in the infusion solution: Jevtana infusion solution

With `Nc1ccn([C@@H]2O[C@H](CO)[C@@H](O)C2(F)F)c(=O)n1` [Gemcytabine, Gemcitabine] the “tumor regression, mean tumor weight on last day of study compared to Day 1” value [1] was 73%.
For `CC(=O)O[C@@]12CO[C@@H]1C[C@H](O)[C@@]1(C)C(=O)[C@H](O)C3=C(C)[C@@H](OC(=O)[C@H](O)[C@@H](NC(=O)OC(C)(C)C)c4ccccc4)C[C@@](O)([C@@H](OC(=O)c4ccccc4)[C@H]21)C3(C)C` [docetaxel], the solubility in water [2] is given as “about 14 mg/L”.
For `CCc1c2c(nc3ccc(O[C@@H]4O[C@H](C(=O)O)[C@@H](O)[C@H](O)[C@H]4O)cc13)-c1cc3c(c(=O)n1C2)COC(=O)[C@]3(O)CC` [SN-38 glucuronide], the urinary excretion [3] is given as 3%.
For `CCc1c2c(nc3ccc(O)cc13)-c1cc3c(c(=O)n1C2)COC(=O)[C@]3(O)CC` [SN-38], the “plasma protein binding (bound)” value (human plasma proteins; SN-38: human plasma proteins, mainly albumin) is listed as “approximately 95%”, the “binding to plasma proteins” value (human plasma proteins; adults and pediatric patients, independent of serum albumin levels) is listed as 94-96% and the urinary excretion [3] is listed as under 1%. The “potency as inhibitor of topoisomerase I relative to irinotecan” value [4] was “approximately 1000 times” and the “bound, mainly to albumin and lymphocytes, also erythrocytes and neutrophils” value [5] was “at least 99%”.
In the case of `CCc1c2c(nc3ccc(OC(=O)N4CCC(N5CCCCC5)CC4)cc13)-c1cc3c(c(=O)n1C2)COC(=O)[C@]3(O)CC` [irinotecan], the “bound to and/or localized in erythrocytes” value [5] is listed as 80%.
In the case of `CO[C@H]1C(=O)[C@]2(C)[C@@H](OC)C[C@H]3OC[C@@]3(OC(C)=O)[C@H]2[C@H](OC(=O)c2ccccc2)[C@]2(O)C[C@H](OC(=O)[C@H](O)[C@@H](NC(=O)OC(C)(C)C)c3ccccc3)C(C)=C1C2(C)C` [cabazitaxel], the solubility in water [2] is listed as “about 8 mg/L”, the “solubility in the infusion solution” value ([6]; 5° C.) is listed as 80 µg/mL (≈ 95.7 µM) and the “solubility in the infusion solution” value ([6]; 25° C.) is listed as 60 µg/mL (≈ 71.8 µM). For the same molecule, the “solubility in the premix” value ([6]; Jevtana premix solution (cabazitaxel concentration 10 mg/mL)) was 3440 µg/mL (≈ 4120 µM).
In the case of `C/C(=C\c1csc(C)n1)[C@@H]1C[C@@H]2O[C@]2(C)CCC[C@H](C)[C@H](O)[C@@H](C)C(=O)C(C)(C)[C@@H](O)CC(=O)N1` [Ixabepilone], the solubility in water [2] is given as “about 3.5 mg/L”.
In the case of `CC(=O)O[C@H]1C(=O)[C@@]2(C)[C@H]([C@H](OC(=O)c3ccccc3)[C@]3(O)C[C@H](OC(=O)[C@H](O)[C@@H](NC(=O)c4ccccc4)c4ccccc4)C(C)=C1C3(C)C)[C@]1(OC(C)=O)CO[C@@H]1C[C@@H]2O` [paclitaxel], the solubility in water [2] is listed as “about 0.4 mg/L”.
